Data taken from publication PMC6930524, “A Prospective Repurposing of Dantrolene as a Multitarget Agent for Alzheimer’s Disease” (Molecules, 2019).

What was measured:
[1] = test system: CAC mutants C136S, C155S, C136/155S, C-lessV; experiment: Transport activity of cysteine-modified CAC mutants in proteoliposomes; type: biochemical, rat; details: 10 μM, C-less V compared with WT
Description: The reducing properties of DAN were studied on the recombinant WT CAC with the protein at different states of oxidation. Figure 8B highlights that when the carrier was incubated during the transport activity with 1 mM dithioerythritol (DTE), 10 µM DAN was able to reduce a major aliquot of oxidized protein (70% recovery of activity compared to the control). […] To identify the cysteines responsible for the activation of the CAC carrier, the proteoliposomes of the WT protein and the mutants C136S, C155S, C136/155S, and C-lessV (C23V/C58V/C89S/C136V/C155V/C283S) were incubated with 10 μM DAN. […] Further evidence of the reducing action of DAN on CAC was obtained by oxidation of the reconstituted WT protein under controlled conditions, i.e., in the presence or absence of hydrogen peroxide and its subsequent degradation by the enzyme catalase. […]
Before starting the transport activity, proteoliposomes were passed through a Sephadex G-75 column (0.7 cm diameter; 15 cm height; Pharmacia, Milan, Italy) to remove the external substrate. […] Finally, the external substrate was removed by chromatography on Sephadex G-75 columns (0.7 cm diameter; 10 cm height) and intraliposomal radioactivity was measured by a liquid scintillation counter (Perkin Elmer, Milan, Italy).

[2] = target: T1, BChE from human serum (hBChE) (Homo sapiens, UniProt P06276); experiment: hBChE inhibition, Ellman's spectrophotometric assay; type: biochemical; details: mean ± SEM of three independent experiments
T1 construct: BChE from human serum (50 U/mg); purchased Sigma-Aldrich Europe (Milan, Italy); host or cells: human serum
Description: An already published method was used to apply the Ellman’s spectrophotometric assay to the 96-well plate technique. […] Experiments were performed in duplicate in transparent, flat-bottomed polystyrene 96-well microtiter plates, and readings made with Tecan Infinite M1000 Pro instrument.

[3] = target: T2, recombinant wild-type (WT) CAC (Rattus norvegicus, UniProt P97521); experiment: Transport activity of purified recombinant WT CAC reconstituted into liposomes; type: biochemical
T2 construct: made in house; host or cells: Escherichia coli C0214
T2 sequence (P97521 1-301): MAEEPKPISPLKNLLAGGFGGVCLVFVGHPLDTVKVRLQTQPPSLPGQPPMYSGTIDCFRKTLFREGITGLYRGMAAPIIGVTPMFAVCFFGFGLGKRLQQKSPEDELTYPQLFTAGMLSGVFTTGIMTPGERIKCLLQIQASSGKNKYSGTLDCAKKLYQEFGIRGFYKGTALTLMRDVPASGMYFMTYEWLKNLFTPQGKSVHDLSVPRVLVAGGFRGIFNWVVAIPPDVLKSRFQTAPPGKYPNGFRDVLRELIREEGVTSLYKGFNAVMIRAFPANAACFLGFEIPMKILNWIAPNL
Description: To detect the effect of DAN on native CAC, mitochondrial extract was reconstituted into liposomes and transport activity was measured adding various concentrations of compound. In Figure 7A, the dose–response curve is shown. […] Thus, the effect of different concentrations of DAN was tested also on the purified recombinant wild-type (WT) CAC carrier reconstituted into liposomes, measuring the antiport rate of carnitine.
The reducing properties of DAN were studied on the recombinant WT CAC with the protein at different states of oxidation. Figure 8B highlights that when the carrier was incubated during the transport activity with 1 mM dithioerythritol (DTE), 10 µM DAN was able to reduce a major aliquot of oxidized protein (70% recovery of activity compared to the control). […] To identify the cysteines responsible for the activation of the CAC carrier, the proteoliposomes of the WT protein and the mutants C136S, C155S, C136/155S, and C-lessV (C23V/C58V/C89S/C136V/C155V/C283S) were incubated with 10 μM DAN. […] Further evidence of the reducing action of DAN on CAC was obtained by oxidation of the reconstituted WT protein under controlled conditions, i.e., in the presence or absence of hydrogen peroxide and its subsequent degradation by the enzyme catalase. […] The addition of 20 µM DAN led to a significant recovery (about 80%) of the transport function, after treatment of the carrier with H2O2.
The previously constructed pMW7-WTrat CAC recombinant plasmid was used as a template to introduce mutations in the CAC protein using complementary mutagenic primers and the High Fidelity PCR System (Roche, Basel, Switzerland). The PCR products were purified by the QIAEX II Gel Extraction Kit (QIAGEN, Milan, Italy), digested with the restriction enzymes Nde I and Hind III (New England Biolabs, Ipswich, MA, USA) and ligated into the pMW7 cloning vector (given as a gift). All resulting pMW7-rat CAC constructs were verified by DNA sequencing. Except for the desired base changes, all the sequences corresponded to the CAC coding sequence. Bacterial overexpression was obtained using the expression vector of Escherichia coli C0214 (given as a gift). Wild-type and mutants rat CAC inclusion body fractions were isolated from E. coli, solubilized, and purified as previously described.
Mitochondrial rat liver extract (0.3 mg proteins in 3% Triton X-100) containing native CAC was reconstituted into liposomes by removing the detergent from the mixed micelles through a hydrophobic ion-exchange column containing the resin Amberlite XAD-4, as described previously. The reconstitution mixture of mitochondrial or recombinant CAC proteins was composed of protein, 1% Triton X-100, 10 mg of egg yolk phospholipids (L-α-phosphatidylcholine from fresh turkey egg yolk), in the form of sonicated liposomes, 30 mM NaH2PO4 at pH 7.0, 15 mM carnitine, in a final volume of 680 μL. This mixture was passed 15 times, at room temperature, through the same Amberlite column (Pasteur pipette filled with 0.5 g resin) pre-equilibrated with a buffer containing 30 mM NaH2PO4 at pH 7.0 and 15 mM carnitine.
Before starting the transport activity, proteoliposomes were passed through a Sephadex G-75 column (0.7 cm diameter; 15 cm height; Pharmacia, Milan, Italy) to remove the external substrate. The turbid eluate (550 μL) from the Sephadex column was collected and used for transport measurement by the inhibitor-stop method. For uptake measurements, transport at 25 °C was started by adding 0.1 mM [^3H]-carnitine to proteoliposomes and stopped by the addition of 0.1 mM NEM. In control samples, the inhibitor was added together with the labeled substrate at time zero. The experimental values were corrected by subtracting control values. […]

T1 sequence (P06276 29-602): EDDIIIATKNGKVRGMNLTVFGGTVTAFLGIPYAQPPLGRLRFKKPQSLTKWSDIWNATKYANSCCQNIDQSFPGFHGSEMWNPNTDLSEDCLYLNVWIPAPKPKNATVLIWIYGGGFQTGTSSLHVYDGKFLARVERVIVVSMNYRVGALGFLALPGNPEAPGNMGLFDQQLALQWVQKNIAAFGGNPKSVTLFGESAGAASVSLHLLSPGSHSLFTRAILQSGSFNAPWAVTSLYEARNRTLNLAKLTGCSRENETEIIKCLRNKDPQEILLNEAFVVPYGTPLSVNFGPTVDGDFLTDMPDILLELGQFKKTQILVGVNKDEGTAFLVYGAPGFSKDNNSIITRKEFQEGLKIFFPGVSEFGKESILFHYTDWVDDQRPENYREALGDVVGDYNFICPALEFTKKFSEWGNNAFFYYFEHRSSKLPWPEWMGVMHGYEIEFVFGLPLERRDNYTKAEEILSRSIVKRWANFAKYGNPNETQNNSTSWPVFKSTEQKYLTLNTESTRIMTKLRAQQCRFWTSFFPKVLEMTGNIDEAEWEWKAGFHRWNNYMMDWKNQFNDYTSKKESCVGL

In the case of `O=C1CN(/N=C/c2ccc(-c3ccc([N+](=O)[O-])cc3)o2)C(O)=N1` [Dantrolene], the “increase in transport activity on cysteine mutants” value [1] is reported as “significantly lost”, the “hBChE IC50” value [2] is reported as “No inhibition” and the “transport activity of WT CAC over time compared to the control” value ([3]; 10 μM, average values over time intervals) is reported as “around 160%”. For the same compound, the “recovery of activity compared to the control” value ([3]; 10 µM, carrier incubated with 1 mM DTE) was 70%, the recovery of activity ([3]; 10 µM, carrier incubated with 50 mM DTE) was 25% and the “increase in transport activity on WT” value ([3]; 10 μM, proteoliposomes of WT protein) was 180%. For the same compound, the “recovery of the transport function after H2O2” value ([3]; 20 µM, after 1 mM H2O2 for 10 min at 37 °C (activity decreased to about 50% without compound)) was “about 80%”, the EC50 ([3]; after 30 min of incubation, read-out: EC50 of activation of recombinant WT CAC) was 9.3 ± 3.1 µM and the “concentration for whole activation of the WT protein” value ([3]; dose–response curve, 30 min) was “above 50 μM”.
